Measured values: patent EP2257297B1, “COMPOUNDS FOR USE IN THE TREATMENT OF ACNE, SEBORRHOEA AND SEBHORROEIC DERMATITIS, OR FOR REDUCING SEBUM SECRETION” (priority 2008, dated 2009)

Assays:
Settings in all cases: Table 6, hMCR binding selectivity
[1] = molecular target: human MC3R; experiment: Human MC3R radioligand binding assay ([125I] NDP-MSH)
Description: (§1) Radioligand binding assays were carried out using commercial or in-house prepared hMC1 R, hMC3R and hMC4R membranes and [^125I]
(§2) In-house plasma membranes were prepared from transfected mammalian cells (prepared as in Example 109, using plasmid DNA containing the human MC1 R, MC3R or MC4R gene or other gene of interest in a plasmid vector with a mammalian origin of replication): • Adherent cells were washed with warm Hanks buffered saline solution (HBSS). 1 mL of cold HBSS was added to each flask and the cells were scraped off with a rubber policeman. The scraped cells were added to a 50 mL tube on ice. The plates were then rinsed twice with 5 mL cold HBSS and this was also added to the tube. The cells were centrifuged at 1000 x g for 5 mins in a bench top centrifuge and the supernatant was decanted. The remaining cell pellet was resuspended in 0.25 M sucrose. The cell suspension was centrifuged again as previously and the pellet resuspended in 5 mL of 0.25 M sucrose containing protease inhibitors. The cells were homogenised by a 10 second pulse with an Ika disperser followed by 30 seconds on ice. The homogenisation and ice incubation was repeated three times. The mixture was then centrifuged at 1260 x g for 5 mins. […]

[2] = molecular target: human MC4R; experiment: Human MC4R radioligand binding assay ([125I] NDP-MSH)
Description: as §1, §2

[3] = molecular target: human MC1R; experiment: Human MC1R radioligand binding assay ([125I] NDP-MSH)
Description: as §1, §2

O=C(/C=C/c1ccc(Cl)cc1)NC[C@@H]1CCN(CC(c2ccccc2)c2ccccc2)C(=O)[C@H](CCN2CCCCC2)N1 [Compound 33, (E)-3-(4-chlorophenyl)-N-(((3S,5S)-1-(2,2-diphenylethyl)-2-oxo-3-(2-(piperidin-1-yl)ethyl)-1,4-diazepan-5-yl)methyl)acrylamide]
IC50 [1]: 1.5 µM | IC50 [2]: 6.06 µM | IC50 [3]: 2.85 µM

N=C(N)NCCC[C@@H]1N[C@H](CNC(=O)c2ccc3ccccc3c2)CCN(CC(c2ccccc2)c2ccccc2)C1=O [Compound 105, N-(((3S,5S)-1-(2,2-diphenylethyl)-3-(3-guanidinopropyl)-2-oxo-1,4-diazepan-5-yl)methyl)-2-naphthamide]
IC50 [2]: 3.28 µM | IC50 [3]: 6.66 µM

CCC(CC)CN1CC[C@@H](CNC(=O)/C=C/c2ccc(Cl)cc2)N[C@@H](CCN2CCCCC2)C1=O [Compound 348, (E)-3-(4-chlorophenyl)-N-(((3S,5S)-1-(2-ethylbutyl)-2-oxo-3-(2-(piperidin-1-yl)ethyl)-1,4-diazepan-5-yl)methyl)acrylamide]
IC50 [1]: 1.83 µM
